In one experiment the target is T1, FES^WT (Homo sapiens, UniProt P07332).
T1 construct: human FES cDNA encoding residues 448–822 or human FER cDNA encoding residues 448–820 was amplified by PCR; made in house; host or cells: E. coli BL21(DE3), co-expressing YopH phosphatase
In words: In vitro TR-FRET kinase assay. Type of experiment: biochemical. The settings on record: for IC50: TR-FRET assay, 5 µM ATP, n = 3, read-out: pIC50 FES^WT (converted); for Residual activity (%): FES WT, mean, n=3. The method, then: All measurements were performed in triplicate.

The target in a further experiment is FER^WT (Homo sapiens, UniProt P16591). In words: In vitro TR-FRET kinase assay. In general terms: In TR-FRET formats the signal depends on donor and acceptor labels being close together.
Experiment [1] has as its system FES^S700C HL-60 neutrophils. In words: Phagocytosis assay with GFP-expressing E. coli. Type of experiment: cell-based, human. The settings on record: for Phagocytic index: Figure 7i, replicates. The method, then:
HL-60 cells were differentiated to neutrophils as described above. Cells were counted and centrifuged (200g, 5 min), followed by resuspension in growth medium without antibiotics. Cells were incubated with vehicle or inhibitor (from 1000x concentrated stocks in DMSO) for 1 h at 37 °C prior to infection (1×10^6 cells in 900 µL in 12-well plate). Meanwhile, E. coli B834(DE3) constitutively expressing GFP^A206K were grown in LB medium to an OD600 of 0.4–1.0, after which bacteria were centrifuged (2000g, 5 min), washed and resuspended in PBS to appropriate density. Neutrophils were infected by addition of bacteria at multiplicity of infection (MOI) of 30 unless stated otherwise. Cells were then incubated for 1 h at 37 °C unless stated otherwise, after which cells were resuspended and transferred to Eppendorf tubes, washed in FACS buffer (1 mL, 500g, 3 min) and fixed in 1% PFA in PBS (15 min, 4 °C, in the dark). Samples were further processed as described above.
Events (generally 20,000 per condition) were gated by forward and side scatter (cells), side scatter area (singlets) and the percentage of GFP-positive cells and GFP mean fluorescence intensity (MFI) were determined based on background fluorescence for non-infected cells. The GREEN-B channel (525/30 filter) was used to detect GFP.

Values joined by “and” are separate entries in the source; they are usually repeats but may differ in a detail not shown here. Equal entries are not always repeated.

T1 sequence (P07332 448-822): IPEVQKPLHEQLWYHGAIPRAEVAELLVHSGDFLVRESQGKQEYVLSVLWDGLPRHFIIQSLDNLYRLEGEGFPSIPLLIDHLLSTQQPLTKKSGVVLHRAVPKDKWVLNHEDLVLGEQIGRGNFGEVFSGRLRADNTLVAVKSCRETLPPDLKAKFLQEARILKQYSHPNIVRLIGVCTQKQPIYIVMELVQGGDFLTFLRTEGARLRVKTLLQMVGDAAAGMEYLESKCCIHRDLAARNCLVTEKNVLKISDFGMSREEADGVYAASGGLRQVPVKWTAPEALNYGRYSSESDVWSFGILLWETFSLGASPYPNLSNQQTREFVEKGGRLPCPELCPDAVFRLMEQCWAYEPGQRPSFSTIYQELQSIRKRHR
FER^WT, sequence (P16591 448-820): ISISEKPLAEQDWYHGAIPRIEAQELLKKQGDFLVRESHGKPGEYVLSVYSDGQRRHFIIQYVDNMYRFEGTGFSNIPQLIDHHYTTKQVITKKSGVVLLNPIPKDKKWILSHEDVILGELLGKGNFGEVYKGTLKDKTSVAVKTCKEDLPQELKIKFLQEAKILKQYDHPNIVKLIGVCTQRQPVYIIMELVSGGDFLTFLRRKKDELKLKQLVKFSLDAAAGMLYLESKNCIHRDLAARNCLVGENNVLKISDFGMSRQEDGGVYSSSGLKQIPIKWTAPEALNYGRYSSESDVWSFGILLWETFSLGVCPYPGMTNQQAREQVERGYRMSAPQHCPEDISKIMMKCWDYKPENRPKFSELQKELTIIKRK

In general, Km refers to the substrate concentration at which the rate is half of its maximum. For `Nc1ncnc2c1ncn2[C@@H]1O[C@H](COP(=O)(O)OP(=O)(O)OP(=O)(O)O)[C@@H](O)[C@H]1O` [ATP], the Km amounted to 1.9 µM on FES^WT (FES^WT, TR-FRET, 60 min, read-out: ATP KM) and 11 µM at FER^WT (read-out: ATP KM, FER^WT).

`COc1ccccc1Nc1ncc(Cl)c(Nc2ccccc2S(=O)(=O)C(C)C)n1` [Compound 2]: the IC50 is 0.0501 µM at FES^WT and 0.00501 µM against FER^WT.

For `C=CC(=O)Nc1ccccc1Nc1nc(Nc2ccccc2OC)ncc1Cl` [Compound 4], the IC50 on FES^WT is 2 µM; against FER^WT, 0.2 µM.

For `CCC(=O)Nc1ccccc1Nc1nc(Nc2ccccc2OC)ncc1Cl` [Compound 5], the IC50 on FES^WT was greater than 10 µM; against FER^WT, 0.126 µM.

As to `COc1cc(Nc2ncc(F)c(Nc3ccc4c(n3)NC(=O)C(C)(C)O4)n2)cc(OC)c1OC` [Compound R406, R406], the Phagocytic index in experiment [1] was 212.415 and 224.559 and 218.427 and 271.225 and 264.489. The Phagocytosis entry in experiment [1] (R406 1 µM) is listed as “reduced phagocytosis to similar levels as observed for WEL028”.

Regarding `COc1ccc2c(c1)CC[C@@H]1[C@@H]2CC[C@]2(C)[C@@H](NCCCCCCN3C(=O)C=CC3=O)CC[C@@H]12` [Compound U-73122, U-73122], the Phagocytic index in experiment [1] was 64.8265 and 82.4025 and 81.0921 and 67.7147 and 64.5235.

For the molecule `COc1ccccc1Nc1ncc(Cl)c(Nc2ccccc2S(=O)(=O)C(C)C)n1` [Supplementary Figure 1c], the “Residual activity (%)” value on FES^WT (log[inhibitor] (M) = -5) was 3.135%; on FES^WT (log[inhibitor] (M) = -5.52288), 1.274%; on FES^WT (log[inhibitor] (M) = -6), 0.9673%; at FES^WT (log[inhibitor] (M) = -6.52288), 3.912%; at FES^WT (log[inhibitor] (M) = -7), 25.313%; at FES^WT (log[inhibitor] (M) = -7.52288) it was 69.4661%. Besides, the “Residual activity (%)” value on FES^WT (log[inhibitor] (M) = -8) was 80.7219%; at FES^WT (log[inhibitor] (M) = -8.52288), 93.5112%; at FES^WT (log[inhibitor] (M) = -9), 92.1668%; on FES^WT (log[inhibitor] (M) = -9.52288), 93.0906%; on FES^WT (log[inhibitor] (M) = -10), 84.5762%; at FES^WT (log[inhibitor] (M) = -10.5229), 85.1733%. In addition, the “Residual activity (%)” value on FES^WT (log[inhibitor] (M) = -11) stood at 101.85%.

Consider `C=CC(=O)Nc1cccc(Nc2nc(Nc3ccccc3OC)ncc2Cl)c1` [Supplementary Figure 1d], for which the “Residual activity (%)” value was determined as 32.3982% at FES^WT (log[inhibitor] (M) = -5); 40.0335% at FES^WT (log[inhibitor] (M) = -5.52288); 62.9411% on FES^WT (log[inhibitor] (M) = -6); 63.4299% on FES^WT (log[inhibitor] (M) = -6.52288); 90.1255% on FES^WT (log[inhibitor] (M) = -7); 87.1043% at FES^WT (log[inhibitor] (M) = -7.52288). The “Residual activity (%)” value at FES^WT (log[inhibitor] (M) = -8) was found to be 96.4271%; at FES^WT (log[inhibitor] (M) = -8.52288) it was 92.3122%; at FES^WT (log[inhibitor] (M) = -9), 101.396%; at FES^WT (log[inhibitor] (M) = -9.52288) it was 120.198%; on FES^WT (log[inhibitor] (M) = -10.5229), 97.4644%; at FES^WT (log[inhibitor] (M) = -11) it was 93.0274%.

Consider `C=CC(=O)Nc1ccccc1Nc1nc(Nc2ccccc2OC)ncc1Cl` [Supplementary Figure 1e], for which the “Residual activity (%)” value at FES^WT (log[inhibitor] (M) = -5) was determined as 4.602%; on FES^WT (log[inhibitor] (M) = -5.52288), 7.942%; at FES^WT (log[inhibitor] (M) = -6), 20.2502%; on FES^WT (log[inhibitor] (M) = -6.52288), 52.3925%; on FES^WT (log[inhibitor] (M) = -7), 77.2757%; at FES^WT (log[inhibitor] (M) = -7.52288), 90.9565%. The “Residual activity (%)” value at FES^WT (log[inhibitor] (M) = -8) worked out at 93.9799%; on FES^WT (log[inhibitor] (M) = -8.52288), 103.383%; at FES^WT (log[inhibitor] (M) = -9) it was 97.8768%; on FES^WT (log[inhibitor] (M) = -9.52288), 97.6076%; at FES^WT (log[inhibitor] (M) = -10) it was 100%; at FES^WT (log[inhibitor] (M) = -10.5229) it was 116.125%.

Consider `COc1ccccc1Nc1ncc(Cl)c(Nc2ccccc2S(=O)(=O)C(C)C)n1` [Supplementary Figure 8c], for which the “Residual activity (%) WT Mean” value is 0.06517% on FER^WT (log[inhibitor] (M) -5); 0.1492% at FER^WT (log[inhibitor] (M) -5.52288); -0.06836% at FER^WT (log[inhibitor] (M) -6); 0.8273% at FER^WT (log[inhibitor] (M) -6.52288); 4.343% on FER^WT (log[inhibitor] (M) -7); 12.0728% at FER^WT (log[inhibitor] (M) -7.52288). Moreover, the “Residual activity (%) WT Mean” value is listed as 31.4398% at FER^WT (log[inhibitor] (M) -8); 59.2785% at FER^WT (log[inhibitor] (M) -8.52288); 83.3824% on FER^WT (log[inhibitor] (M) -9); 101.278% at FER^WT (log[inhibitor] (M) -9.52288); 106.348% at FER^WT (log[inhibitor] (M) -10); 105.352% on FER^WT (log[inhibitor] (M) -10.5229). The “Residual activity (%) WT Mean” value on FER^WT (log[inhibitor] (M) -11) turned out to be 108.85%.

With `C=CC(=O)Nc1ccccc1Nc1nc(Nc2ccccc2OC)ncc1Cl` [Supplementary Figure 8d], the “Residual activity (%) WT Mean” value on FER^WT (log[inhibitor] (M) -5) is 4.829%; at FER^WT (log[inhibitor] (M) -5.52288), 6.417%; on FER^WT (log[inhibitor] (M) -6) it was 19.305%; at FER^WT (log[inhibitor] (M) -6.52288), 38.3519%; on FER^WT (log[inhibitor] (M) -7) it was 71.19%; at FER^WT (log[inhibitor] (M) -7.52288), 87.6084%. Further, the “Residual activity (%) WT Mean” value at FER^WT (log[inhibitor] (M) -8) is 99.295%; at FER^WT (log[inhibitor] (M) -8.52288) it was 98.6881%; on FER^WT (log[inhibitor] (M) -9) it was 106.616%; on FER^WT (log[inhibitor] (M) -9.52288) it was 102.334%; at FER^WT (log[inhibitor] (M) -10), 107.184%; on FER^WT (log[inhibitor] (M) -10.5229), 102.376%. For the same molecule, at FER^WT (log[inhibitor] (M) -11), the “Residual activity (%) WT Mean” value came out at 116.944%.

For `CCC(=O)Nc1ccccc1Nc1nc(Nc2ccccc2OC)ncc1Cl` [Supplementary Figure 8e], the “Residual activity (%) WT Mean” value on FER^WT (log[inhibitor] (M) -5) turned out to be 15.6173%; on FER^WT (log[inhibitor] (M) -5.52288), 11.558%; on FER^WT (log[inhibitor] (M) -6) it was 19.5081%; on FER^WT (log[inhibitor] (M) -6.52288), 74.3812%; at FER^WT (log[inhibitor] (M) -7), 96.1324%; on FER^WT (log[inhibitor] (M) -7.52288), 93.3601%. In addition, the “Residual activity (%) WT Mean” value at FER^WT (log[inhibitor] (M) -8) is recorded as 104.761%; on FER^WT (log[inhibitor] (M) -8.52288) it was 92.7732%; at FER^WT (log[inhibitor] (M) -9) it was 106.725%; on FER^WT (log[inhibitor] (M) -9.52288) it was 98.2336%; at FER^WT (log[inhibitor] (M) -10), 113.972%; at FER^WT (log[inhibitor] (M) -10.5229), 97.8463%. The “Residual activity (%) WT Mean” value on FER^WT (log[inhibitor] (M) -11) is listed as 108.607%.

In the case of `C#CCOc1ccc(Nc2ncc(Cl)c(Nc3ccccc3NC(=O)C=C)n2)c(OC)c1` [Supplementary Figure 8f], the “Residual activity (%) WT Mean” value on FER^WT (log[inhibitor] (M) -5) turned out to be 5.2329%; at FER^WT (log[inhibitor] (M) -5.52288), 3.792%; at FER^WT (log[inhibitor] (M) -6), 14.1153%; on FER^WT (log[inhibitor] (M) -6.52288), 25.7365%; on FER^WT (log[inhibitor] (M) -7) it was 62.4124%; on FER^WT (log[inhibitor] (M) -7.52288), 74.9371%. In addition, the “Residual activity (%) WT Mean” value on FER^WT (log[inhibitor] (M) -8) was 97.3541%; at FER^WT (log[inhibitor] (M) -8.52288) it was 92.3988%; on FER^WT (log[inhibitor] (M) -9), 107.069%; at FER^WT (log[inhibitor] (M) -9.52288), 97.7799%; on FER^WT (log[inhibitor] (M) -10), 105.81%; at FER^WT (log[inhibitor] (M) -10.5229), 90.1497%. The “Residual activity (%) WT Mean” value at FER^WT (log[inhibitor] (M) -11) was 111.768%.

(Values after paper PMC7316778 (Nature Communications, 2020).)
